In ChEMBL document CHEMBL1629685, “Macrolide and clindamycin resistance in Streptococcus milleri group isolates from the airways of cystic fibrosis patients” (2010):

Key:
Assay type in all cases: functional
Streptococcus anginosus [1] = test: Antimicrobial activity against invasive Streptococcus anginosus obtained from non-cystic fibrosis patient assessed as non-susceptible isolates grown on brain heart infusion agar at 15 ug/ml after 24 hrs at 37 degC by disk diffusion method
[2] = system: Streptococcus constellatus; test: Antimicrobial activity against invasive Streptococcus constellatus obtained from non-cystic fibrosis patient assessed as non-susceptible isolates grown on brain heart infusion agar at 15 ug/ml after 24 hrs at 37 degC by disk diffusion method
[3] = system: Streptococcus intermedius; test: Antimicrobial activity against Streptococcus intermedius obtained from patient with cystic fibrosis assessed as non-susceptible isolates grown on mueller-Hinton blood agar at 15 ug/ml after 24 hrs at 37 degC by disk diffusion method in presence of 5% defribinated sheep blood
[4] = system: Streptococcus constellatus; test: Antimicrobial activity against Streptococcus constellatus obtained from patient with cystic fibrosis assessed as non-susceptible isolates grown on mueller-Hinton blood agar at 15 ug/ml after 24 hrs at 37 degC by disk diffusion method in presence of 5% defribinated sheep blood
[5] = system: Streptococcus intermedius; test: Antimicrobial activity against Streptococcus intermedius obtained from patient with cystic fibrosis assessed as non-susceptible isolates grown on brain heart infusion agar at 15 ug/ml after 24 hrs at 37 degC by disk diffusion method
Streptococcus anginosus [6] = test: Antimicrobial activity against Streptococcus anginosus obtained from patient with cystic fibrosis assessed as non-susceptible isolates grown on mueller-Hinton blood agar at 15 ug/ml after 24 hrs at 37 degC by disk diffusion method in presence of 5% defribinated sheep blood
[7] = system: Streptococcus constellatus; test: Antimicrobial activity against Streptococcus constellatus obtained from patient with cystic fibrosis assessed as non-susceptible isolates grown on brain heart infusion agar at 15 ug/ml after 24 hrs at 37 degC by disk diffusion method
[8] = system: Streptococcus intermedius; test: Antimicrobial activity against invasive Streptococcus intermedius obtained from non-cystic fibrosis patient assessed as non-susceptible isolates grown on brain heart infusion agar at 15 ug/ml after 24 hrs at 37 degC by disk diffusion method
Streptococcus anginosus [9] = test: Antimicrobial activity against invasive Streptococcus anginosus obtained from non-cystic fibrosis patient assessed as non-susceptible isolates grown on mueller-Hinton blood agar at 15 ug/ml after 24 hrs at 37 degC by disk diffusion method in presence of 5% defribinated sheep blood
Streptococcus anginosus [10] = test: Antimicrobial activity against Streptococcus anginosus obtained from patient with cystic fibrosis assessed as non-susceptible isolates grown on brain heart infusion agar at 15 ug/ml after 24 hrs at 37 degC by disk diffusion method
[11] = system: Streptococcus intermedius; test: Antimicrobial activity against invasive Streptococcus intermedius obtained from non-cystic fibrosis patient assessed as non-susceptible isolates grown on mueller-Hinton blood agar at 15 ug/ml after 24 hrs at 37 degC by disk diffusion method in presence of 5% defribinated sheep blood
[12] = system: Streptococcus constellatus; test: Antimicrobial activity against invasive Streptococcus constellatus obtained from non-cystic fibrosis patient assessed as non-susceptible isolates grown on mueller-Hinton blood agar at 15 ug/ml after 24 hrs at 37 degC by disk diffusion method in presence of 5% defribinated sheep blood
Streptococcus anginosus [13] = test: Antimicrobial activity against invasive Streptococcus anginosus obtained from non-cystic fibrosis patient assessed as non-susceptible isolates grown on brain heart infusion agar at 30 ug/ml after 24 hrs at 37 degC by disk diffusion method
[14] = system: Streptococcus constellatus; test: Antimicrobial activity against invasive Streptococcus constellatus obtained from non-cystic fibrosis patient assessed as non-susceptible isolates grown on brain heart infusion agar at 30 ug/ml after 24 hrs at 37 degC by disk diffusion method
[15] = system: Streptococcus intermedius; test: Antimicrobial activity against invasive Streptococcus intermedius obtained from non-cystic fibrosis patient assessed as non-susceptible isolates grown on mueller-Hinton blood agar at 30 ug/ml after 24 hrs at 37 degC by disk diffusion method in presence of 5% defribinated sheep blood
[16] = system: Streptococcus constellatus; test: Antimicrobial activity against invasive Streptococcus constellatus obtained from non-cystic fibrosis patient assessed as non-susceptible isolates grown on mueller-Hinton blood agar at 30 ug/ml after 24 hrs at 37 degC by disk diffusion method in presence of 5% defribinated sheep blood
Streptococcus anginosus [17] = test: Antimicrobial activity against invasive Streptococcus anginosus obtained from non-cystic fibrosis patient assessed as non-susceptible isolates grown on mueller-Hinton blood agar at 30 ug/ml after 24 hrs at 37 degC by disk diffusion method in presence of 5% defribinated sheep blood
[18] = system: Streptococcus intermedius; test: Antimicrobial activity against Streptococcus intermedius obtained from patient with cystic fibrosis assessed as non-susceptible isolates grown on mueller-Hinton blood agar at 30 ug/ml after 24 hrs at 37 degC by disk diffusion method in presence of 5% defribinated sheep blood
[19] = system: Streptococcus constellatus; test: Antimicrobial activity against Streptococcus constellatus obtained from patient with cystic fibrosis assessed as non-susceptible isolates grown on brain heart infusion agar at 30 ug/ml after 24 hrs at 37 degC by disk diffusion method
[20] = system: Streptococcus intermedius; test: Antimicrobial activity against invasive Streptococcus intermedius obtained from non-cystic fibrosis patient assessed as non-susceptible isolates grown on brain heart infusion agar at 30 ug/ml after 24 hrs at 37 degC by disk diffusion method
[21] = system: Streptococcus intermedius; test: Antimicrobial activity against Streptococcus intermedius obtained from patient with cystic fibrosis assessed as non-susceptible isolates grown on brain heart infusion agar at 30 ug/ml after 24 hrs at 37 degC by disk diffusion method
Streptococcus anginosus [22] = test: Antimicrobial activity against Streptococcus anginosus obtained from patient with cystic fibrosis assessed as non-susceptible isolates grown on brain heart infusion agar at 30 ug/ml after 24 hrs at 37 degC by disk diffusion method
[23] = system: Streptococcus constellatus; test: Antimicrobial activity against Streptococcus constellatus obtained from patient with cystic fibrosis assessed as non-susceptible isolates grown on mueller-Hinton blood agar at 30 ug/ml after 24 hrs at 37 degC by disk diffusion method in presence of 5% defribinated sheep blood
Streptococcus anginosus [24] = test: Antimicrobial activity against Streptococcus anginosus obtained from patient with cystic fibrosis assessed as non-susceptible isolates grown on mueller-Hinton blood agar at 30 ug/ml after 24 hrs at 37 degC by disk diffusion method in presence of 5% defribinated sheep blood
[25] = system: Streptococcus intermedius; test: Antimicrobial activity against Streptococcus intermedius obtained from patient with cystic fibrosis assessed as non-susceptible isolates grown on mueller-Hinton blood agar at 2 ug/ml after 24 hrs at 37 degC by disk diffusion method in presence of 5% defribinated sheep blood
[26] = system: Streptococcus constellatus; test: Antimicrobial activity against Streptococcus constellatus obtained from patient with cystic fibrosis assessed as non-susceptible isolates grown on mueller-Hinton blood agar at 2 ug/ml after 24 hrs at 37 degC by disk diffusion method in presence of 5% defribinated sheep blood
[27] = system: Streptococcus intermedius; test: Antimicrobial activity against Streptococcus intermedius obtained from patient with cystic fibrosis assessed as non-susceptible isolates grown on brain heart infusion agar at 2 ug/ml after 24 hrs at 37 degC by disk diffusion method; conditions: at 2 µg/mL
[28] = system: Streptococcus constellatus; test: Antimicrobial activity against invasive Streptococcus constellatus obtained from non-cystic fibrosis patient assessed as non-susceptible isolates grown on brain heart infusion agar at 2 ug/ml after 24 hrs at 37 degC by disk diffusion method; conditions: at 2 µg/mL
[29] = system: Streptococcus constellatus; test: Antimicrobial activity against invasive Streptococcus constellatus obtained from non-cystic fibrosis patient assessed as non-susceptible isolates grown on mueller-Hinton blood agar at 2 ug/ml after 24 hrs at 37 degC by disk diffusion method in presence of 5% defribinated sheep blood
[30] = system: Streptococcus intermedius; test: Antimicrobial activity against invasive Streptococcus intermedius obtained from non-cystic fibrosis patient assessed as non-susceptible isolates grown on brain heart infusion agar at 2 ug/ml after 24 hrs at 37 degC by disk diffusion method; conditions: at 2 µg/mL
[31] = system: Streptococcus constellatus; test: Antimicrobial activity against Streptococcus constellatus obtained from patient with cystic fibrosis assessed as non-susceptible isolates grown on brain heart infusion agar at 2 ug/ml after 24 hrs at 37 degC by disk diffusion method; conditions: at 2 µg/mL
Streptococcus anginosus [32] = test: Antimicrobial activity against Streptococcus anginosus obtained from patient with cystic fibrosis assessed as non-susceptible isolates grown on brain heart infusion agar at 2 ug/ml after 24 hrs at 37 degC by disk diffusion method; conditions: at 2 µg/mL
Streptococcus anginosus [33] = test: Antimicrobial activity against invasive Streptococcus anginosus obtained from non-cystic fibrosis patient assessed as non-susceptible isolates grown on mueller-Hinton blood agar at 2 ug/ml after 24 hrs at 37 degC by disk diffusion method in presence of 5% defribinated sheep blood
Streptococcus anginosus [34] = test: Antimicrobial activity against Streptococcus anginosus obtained from patient with cystic fibrosis assessed as non-susceptible isolates grown on mueller-Hinton blood agar at 2 ug/ml after 24 hrs at 37 degC by disk diffusion method in presence of 5% defribinated sheep blood
Streptococcus anginosus [35] = test: Antimicrobial activity against invasive Streptococcus anginosus obtained from non-cystic fibrosis patient assessed as non-susceptible isolates grown on brain heart infusion agar at 2 ug/ml after 24 hrs at 37 degC by disk diffusion method; conditions: at 2 µg/mL
[36] = system: Streptococcus intermedius; test: Antimicrobial activity against invasive Streptococcus intermedius obtained from non-cystic fibrosis patient assessed as non-susceptible isolates grown on mueller-Hinton blood agar at 2 ug/ml after 24 hrs at 37 degC by disk diffusion method in presence of 5% defribinated sheep blood

Row | Structure (SMILES) | Activity (Streptococcus anginosus [1]) [%] | Activity [2] [%] | Activity [3] [%] | Activity [4] [%] | Activity [5] [%] | Activity (Streptococcus anginosus [6]) [%] | Activity [7] [%] | Activity [8] [%] | Activity (Streptococcus anginosus [9]) [%] | Activity (Streptococcus anginosus [10]) [%] | Activity [11] [%] | Activity [12] [%] | Activity [15] [%] | Activity [16] [%] | Activity (Streptococcus anginosus [17]) [%] | Activity [18] [%] | Activity [23] [%] | Activity (Streptococcus anginosus [24]) [%] | further results
1 | CC[C@H]1OC(=O)[C@H](C)[C@@H](O[C@H]2C[C@@](C)(OC)[C@@H](O)[C@H](C)O2)[C@H](C)[C@@H](O[C@@H]2O[C@H](C)C[C@H](N(C)C)[C@H]2O)[C@](C)(O)C[C@@H](C)CN(C)[C@H](C)[C@@H](O)[C@]1(C)O [AZITHROMYCIN] | 0 | 7.7 | 50 | 20 | 34.4 | 60 | 65 | 16.7 | 11.1 | 56.5 | 28.6 | 0 | – | – | – | – | – | – | –
2 | CO/N=C(\C(=O)N[C@@H]1C(=O)N2C(C(=O)[O-])=C(C[N+]3(C)CCCC3)CS[C@H]12)c1csc(N)n1 | – | – | – | – | – | – | – | – | – | – | – | – | 0 | 0 | 0 | 0 | 0 | 2.5 | Activity (Streptococcus anginosus [13]): 0%; Activity [14]: 0%; Activity [19]: 0%; Activity [20]: 0%; Activity [21]: 3.1%; Activity (Streptococcus anginosus [22]): 0%
3 | CN(C)[C@@H]1C(O)=C(C(N)=O)C(=O)[C@@]2(O)C(O)=C3C(=O)c4c(O)cccc4[C@@](C)(O)[C@H]3C[C@@H]12 [TETRACYCLINE] | – | – | – | – | – | – | – | – | – | – | – | – | 0 | 33.3 | – | 0 | 0 | 27.5 | –
4 | CC[C@H]1OC(=O)[C@H](C)[C@@H](O[C@H]2C[C@@](C)(OC)[C@@H](O)[C@H](C)O2)[C@H](C)[C@@H](O[C@@H]2O[C@H](C)C[C@H](N(C)C)[C@H]2O)[C@](C)(O)C[C@@H](C)C(=O)[C@H](C)[C@@H](O)[C@]1(C)O [ERYTHROMYCIN] | 11.1 | 7.7 | 50 | 20 | 34.4 | 57.5 | 65 | 16.7 | 11.1 | 52.2 | 28.6 | 0 | – | – | – | – | – | – | –
5 | CCC[C@@H]1C[C@@H](C(=O)N[C@@H]([C@H]2O[C@H](SC)[C@H](O)[C@@H](O)[C@H]2O)[C@H](C)Cl)N(C)C1 [CLINDAMYCIN] | – | – | – | – | – | – | – | – | – | – | – | – | – | – | – | – | – | – | Activity [25]: 50%; Activity [26]: 20%; Activity [27]: 28.1%; Activity [28]: 0%; Activity [29]: 0%; Activity [30]: 12.5%; Activity [31]: 62.5%; Activity (Streptococcus anginosus [32]): 56.5%; Activity (Streptococcus anginosus [33]): 0%; Activity (Streptococcus anginosus [34]): 52.5%; Activity (Streptococcus anginosus [35]): 0%; Activity [36]: 28.6%
6 | CO/N=C(\C(=O)N[C@@H]1C(=O)N2C(C(=O)O)=C(CSc3nc(=O)c(O)nn3C)CS[C@H]12)c1csc(N)n1 [CEFTRIAXONE] | – | – | – | – | – | – | – | – | – | – | – | – | 0 | 0 | 0 | 0 | 0 | 0 | –
